≈ marks a conversion by molar mass, not a printed value.
Each compound was assayed on Mycobacterium tuberculosis variant bovis BCG (assay: Antimycobacterial activity against Mycobacterium bovis BCG ATCC 35734 after 5 days by broth dilution method). Conditions: ATCC 35734, 120 h.
Assay type: functional
CCCCCCCCn1ccc2cc(OCCCN3CCCCCC3)ccc21 gave an MIC50 of 1.9 µM (≈ 0.731 µg/mL) and an MIC90 of 8 µM (≈ 3.08 µg/mL).
Work on CCCCCCCCn1cc(CN2CCC(S(N)(=O)=O)CC2)c2ccc(OC)cc21 yielded an MIC50 of 8 µM (≈ 3.49 µg/mL) and an MIC90 of 22 µM (≈ 9.58 µg/mL).
Work on CCCCCCCCn1cc(CNCC2CCC3(CCCC3)O2)c2ccc(OC)cc21 (stereo not given) yielded an MIC50 of 1.8 µM (≈ 0.768 µg/mL) and an MIC90 of 4.6 µM (≈ 1.96 µg/mL).
Work on COc1ccc(CCCn2cc(CN3CCC4(CC3)OCCO4)c3ccc(OC)cc32)cc1 yielded an MIC50 of 7.4 µM (≈ 3.33 µg/mL) and an MIC90 of 17 µM (≈ 7.66 µg/mL).
CCCCCCCCn1ccc2c(OCCCN3CCCCCC3)cccc21 gave an MIC50 of 9.5 µM (≈ 3.65 µg/mL) and an MIC90 of 22 µM (≈ 8.46 µg/mL).
For COc1ccc2c(CN3CCC4(CC3)OCCO4)cn(CCCCc3ccccc3)c2c1, the MIC50 was 4.9 µM (≈ 2.13 µg/mL) and the MIC90 was 11.5 µM (≈ 5 µg/mL).
CCCCCCCCn1ccc2ccc(OCCCN3CCCC3)cc21 gave an MIC50 of 20 µM (≈ 7.13 µg/mL) and an MIC90 of 42 µM (≈ 15 µg/mL).
In the case of CCCCCCCCn1cc(CN2CCC3(CC2)OCCO3)c2ccc(OCCC)cc21, the MIC50 is reported as 3 µM (≈ 1.33 µg/mL) and the MIC90 is reported as 5 µM (≈ 2.21 µg/mL).
CCCCCCCCn1cc(CNC2Cc3ccccc3C2)c2ccc(OC)cc21 was tested, and the MIC50 was 4 µM (≈ 1.62 µg/mL).
Work on CCCCCCCCn1cc(CN2CC3C(C2)C3(F)F)c2ccc(OC)cc21 (stereo not given) yielded an MIC50 of 21 µM (≈ 8.2 µg/mL) and an MIC90 of 50 µM (≈ 19.5 µg/mL).
With COc1ccc2c(CN3CCC4(CC3)OCCCO4)cn(CCCc3ccccc3)c2c1 the MIC50 was 2.6 µM (≈ 1.13 µg/mL) and the MIC90 was 9.8 µM (≈ 4.26 µg/mL).
CCCCCCCCn1cc(CN2CCC3(CC2)OC(C)C(C)O3)c2ccc(OC)cc21 (stereo not given) was tested, and the MIC50 was 0.7 µM (≈ 0.31 µg/mL) and the MIC90 was 1.6 µM (≈ 0.708 µg/mL).
Compound CCCCCCCCn1cc(CN2CCCCC2)c2ccc(OC)cc21 has an MIC50 of 7 µM (≈ 2.5 µg/mL) and an MIC90 of 13 µM (≈ 4.64 µg/mL).
Compound CCCCCCCCn1cc(CN2CCOC3(CCCOC3)C2)c2ccc(OC)cc21 (stereo not given) has an MIC50 of 1.8 µM (≈ 0.772 µg/mL) and an MIC90 of 6.3 µM (≈ 2.7 µg/mL).
COc1ccc2c(CN3CCC4(CC3)OCCO4)cn(CCCOc3ccc(C)cc3)c2c1 gave an MIC50 of 4.8 µM (≈ 2.16 µg/mL) and an MIC90 of 11 µM (≈ 4.96 µg/mL).
In the case of CCCCCCCCn1cc(CN2CCC3(CCc4ccccc43)CC2)c2ccc(OC)cc21, the MIC50 is reported as 1 µM (≈ 0.459 µg/mL) and the MIC90 is reported as 2 µM (≈ 0.917 µg/mL).
Compound CCCCCCCCn1ccc2ccc(OCCCN3CCCCCC3)cc21 has an MIC50 of 3.9 µM (≈ 1.5 µg/mL) and an MIC90 of 12 µM (≈ 4.62 µg/mL).
For COc1ccc2c(CN3CCC4(CC3)OCCCO4)cn(CCCOc3ccc(C)cc3)c2c1, the MIC50 was 1.3 µM (≈ 0.604 µg/mL) and the MIC90 was 2.6 µM (≈ 1.21 µg/mL).
CCCCCCCCn1ccc2cc(OCCCN3CCCC3)ccc21 gave an MIC50 of 31 µM (≈ 11.1 µg/mL) and an MIC90 of 48 µM (≈ 17.1 µg/mL).
COc1ccc(CCCn2cc(CN3CCCCC3)c3ccc(OC)cc32)cc1 gave an MIC50 of 18 µM (≈ 7.07 µg/mL) and an MIC90 of 39 µM (≈ 15.3 µg/mL).
In the case of CCCCCCCCn1cc(CNC2CCC3(CC2)OCCO3)c2ccc(OC)cc21, the MIC50 is reported as 3.6 µM (≈ 1.54 µg/mL) and the MIC90 is reported as 6.3 µM (≈ 2.7 µg/mL).
CCCCCCCCn1cc(CN2CCOC3(CCCO3)C2)c2ccc(OC)cc21 (stereo not given) gave an MIC50 of 15 µM (≈ 6.22 µg/mL) and an MIC90 of 46 µM (≈ 19.1 µg/mL).
CCCCCCCCn1cc(CN2CCC3(CC2)OCCCO3)c2c([N+](=O)[O-])cccc21 gave an MIC50 of 10 µM (≈ 4.44 µg/mL) and an MIC90 of 25 µM (≈ 11.1 µg/mL).
For CCCCCCCCn1cc(CN2CCCCC2)c2ccc(OC(C)C)cc21, the MIC50 was 4 µM (≈ 1.54 µg/mL) and the MIC90 was 6 µM (≈ 2.31 µg/mL).
CCCCCCCCn1cc(CN2CCC3(CC2)OCCO3)c2ccc([N+](=O)[O-])cc21 was tested, and the MIC50 was 0.8 µM (≈ 0.344 µg/mL) and the MIC90 was 1.6 µM (≈ 0.687 µg/mL).
For CCCCCCCCn1cc(CN2CCC3(C2)CC3(F)F)c2ccc(OC)cc21 (stereo not given), the MIC50 was 13 µM (≈ 5.26 µg/mL) and the MIC90 was 18 µM (≈ 7.28 µg/mL).
CCCCCCCCn1ccc2ccc(OCCCN3CCC4(CC3)OCCCO4)cc21 showed an MIC50 of 5.6 µM (≈ 2.48 µg/mL) and an MIC90 of 28 µM (≈ 12.4 µg/mL).
With COc1ccc2c(CN3CCCCC3)cn(CCCOc3ccc(C)cc3)c2c1 the MIC50 was 19 µM (≈ 7.46 µg/mL) and the MIC90 was 41 µM (≈ 16.1 µg/mL).
Work on CCCCCCCCn1cc(CN2CCC3(CC2)OC[C@@H](C)O3)c2ccc(OC)cc21 yielded an MIC50 of 0.6 µM (≈ 0.257 µg/mL) and an MIC90 of 0.8 µM (≈ 0.343 µg/mL).
In the case of COc1ccc2c(CN3CCCCC3)cn(CCCOc3ccc(F)cc3)c2c1, the MIC50 is reported as 20 µM (≈ 7.93 µg/mL) and the MIC90 is reported as 43 µM (≈ 17 µg/mL).
With CCCCCCCCn1cc(CN2CCC3(CC2)OCCCO3)c2ccc(C#N)cc21 the MIC50 was 0.5 µM (≈ 0.212 µg/mL) and the MIC90 was 1.2 µM (≈ 0.508 µg/mL).
With COc1ccc2c(CN3CCC4(CC3)OCCO4)cn(CCCCOc3ccccc3)c2c1 the MIC50 was 20 µM (≈ 9.01 µg/mL) and the MIC90 was 41 µM (≈ 18.5 µg/mL).
COc1ccc(OCCCn2cc(CN3CCCCC3)c3ccc(OC)cc32)cc1 was tested, and the MIC50 was 34 µM (≈ 13.9 µg/mL) and the MIC90 was > 50 µM.
COc1ccc2c(CN3CCC4(CC3)OCCCO4)cn(CCCOc3ccc(F)cc3)c2c1 was tested, and the MIC50 was 1.5 µM (≈ 0.703 µg/mL) and the MIC90 was 2.6 µM (≈ 1.22 µg/mL).
Compound CCCCCCCCn1ccc2cccc(OCCCN3CCCCCC3)c21 has an MIC50 of 5 µM (≈ 1.92 µg/mL) and an MIC90 of 11 µM (≈ 4.23 µg/mL).
CCCCCCCCn1cc(CN2CCC3(C=Cc4ccccc43)CC2)c2ccc(OC)cc21 gave an MIC50 of 1 µM (≈ 0.457 µg/mL) and an MIC90 of 2 µM (≈ 0.913 µg/mL).
CCCCCCCCn1ccc2cc(OCCN3CCCCCC3)ccc21 gave an MIC50 of 2 µM (≈ 0.741 µg/mL) and an MIC90 of 6 µM (≈ 2.22 µg/mL).
In the case of COc1ccc(OCCCn2cc(CN3CCC4(CC3)OCCCO4)c3ccc(OC)cc32)cc1, the MIC50 is reported as 1.5 µM (≈ 0.721 µg/mL) and the MIC90 is reported as 3.5 µM (≈ 1.68 µg/mL).
CCCCCCCCn1cc(CN2CCC3(CC2)OCCCO3)c2ccc([N+](=O)[O-])cc21 was tested, and the MIC50 was 0.3 µM (≈ 0.133 µg/mL) and the MIC90 was 0.8 µM (≈ 0.355 µg/mL).
COc1ccc2c(CN3CCCCC3)cn(CCCCOc3ccccc3)c2c1 showed an MIC50 of 16 µM (≈ 6.28 µg/mL) and an MIC90 of 41 µM (≈ 16.1 µg/mL).
COc1ccc2c(CN3CCCCC3)cn(CCCOc3ccc(C)c(C)c3)c2c1 gave an MIC50 of 18 µM (≈ 7.32 µg/mL) and an MIC90 of 25 µM (≈ 10.2 µg/mL).
CCCCCCCCn1cc(CN2CCC3(CC2)CNC(=O)O3)c2ccc(OC)cc21 gave an MIC50 of 22 µM (≈ 9.41 µg/mL) and an MIC90 of 43 µM (≈ 18.4 µg/mL).
COc1ccc(CCCn2cc(CN3CCC4(CC3)OCCCO4)c3ccc(OC)cc32)cc1 was tested, and the MIC50 was 4.1 µM (≈ 1.9 µg/mL) and the MIC90 was 9.3 µM (≈ 4.32 µg/mL).

Reference: ChEMBL document CHEMBL4145615, “Indolyl Azaspiroketal Mannich Bases Are Potent Antimycobacterial Agents with Selective Membrane Permeabilizing Effects and in Vivo Activity” (J Med Chem, 2018)
